How the values were obtained:
Assay type in all cases: biochemical
Recombinant human TRKA = target: T1, Recombinant human TRKA (Homo sapiens, UniProt P04629); assay: In vitro activity test on TRKA kinase (HTRF KinEASE TK); conditions: 14.68 μM ATP, 40 min
T1 construct: purchased Carna Biosciences
Method: (§1) Biological Test Example 1 In Vitro Activity Test on TRKA, TRKB, TRKC Kinase
(§2) Recombinant human TRKA, TRKB, TRKC proteins were purchased from Carna Biosciences. HTRF KinEASE TK kit was purchased from Cisbio Bioassays. Synergy Neo 2 of Biotek was used to read the plate.
(§3) The tested compound was subjected to 3-fold serial dilution to reach a final concentration of 1 μM to 0.05 nM (10 concentrations), duplicates for each concentration; and the DMSO concentration in the detection reaction was 1%.
0.2 ng/μL TRKA protein kinase, 1 μM TK Substrate-biotin polypeptide substrate, 14.68 μM ATP, 1× enzymatic buffer, 5 mM MgCl2, and 1 mM DTT. The detection plate was White Proxiplate384-Plus plate (PerkinElmer), and incubated at room temperature for 40 min, and the assay volume was 10 μL.
(§4) 10 μL of detection reagent was added to the plate (containing 0.125 μM SA-XL665 and 5 μL 1×TK-Antibody) and incubated overnight at room temperature, and Synergy Neo 2 was used to read the plate.
(§5) The 665/620 Ratio was converted according to the following formula into inhibition rate (%)=(1−Ratiotest/Ratiomax)×100%. Ratiomax was a positive control without tested compound, and Ratiotest was the value of each concentration of different compounds. IC50 (nM) data was obtained by 4 parameter curve fitting (see Table 1).

Recombinant human TRKC = target: T2, Recombinant human TRKC (Homo sapiens, UniProt Q16288); assay: In vitro activity test on TRKC kinase (HTRF KinEASE TK); conditions: 25.64 μM ATP, 40 min
T2 construct: purchased Carna Biosciences
T2 sequence (Q16288 32-839): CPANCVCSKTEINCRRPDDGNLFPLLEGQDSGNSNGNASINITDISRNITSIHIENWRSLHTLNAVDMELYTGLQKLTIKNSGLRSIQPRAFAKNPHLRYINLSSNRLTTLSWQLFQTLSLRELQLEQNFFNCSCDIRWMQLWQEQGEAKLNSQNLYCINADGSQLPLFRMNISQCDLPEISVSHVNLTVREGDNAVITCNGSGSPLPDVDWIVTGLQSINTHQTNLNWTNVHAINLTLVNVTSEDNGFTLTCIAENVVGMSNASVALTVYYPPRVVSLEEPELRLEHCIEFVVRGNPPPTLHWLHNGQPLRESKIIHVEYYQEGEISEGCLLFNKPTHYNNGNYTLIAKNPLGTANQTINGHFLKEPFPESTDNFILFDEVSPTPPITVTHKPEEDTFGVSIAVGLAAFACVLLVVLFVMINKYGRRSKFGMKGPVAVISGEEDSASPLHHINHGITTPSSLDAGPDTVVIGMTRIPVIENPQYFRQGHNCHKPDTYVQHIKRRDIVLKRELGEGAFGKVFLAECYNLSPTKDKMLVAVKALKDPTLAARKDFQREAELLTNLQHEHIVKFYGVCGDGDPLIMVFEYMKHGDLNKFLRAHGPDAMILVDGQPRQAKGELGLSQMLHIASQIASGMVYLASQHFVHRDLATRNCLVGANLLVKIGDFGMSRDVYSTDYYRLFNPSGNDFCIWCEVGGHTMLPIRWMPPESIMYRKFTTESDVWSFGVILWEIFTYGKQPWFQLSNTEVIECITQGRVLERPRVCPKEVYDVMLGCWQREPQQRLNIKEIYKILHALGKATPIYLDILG
Method: as §1, §2, §3
0.037 ng/μL TRKC protein kinase, 1 μM TK Substrate-biotin polypeptide substrate, 25.64 μM ATP, 1× enzymatic buffer, 5 mM MgCl2, and 1 mM DTT. The detection plate was White Proxiplate 384-Plus plate (PerkinElmer), and incubated at room temperature for 40 min, and the assay volume was 10 μL.
as §4, §5

[1] = target: T3, recombinant human TRKA (G667C) (Homo sapiens, UniProt P04629, G667C); assay: In vitro activity test on mutant TRKA (G667C) (HTRF KinEASE TK); conditions: 5.5 μM ATP, 30 min
T3 construct: purchased SignalChem
T3 sequence (P04629 33-796 G667C): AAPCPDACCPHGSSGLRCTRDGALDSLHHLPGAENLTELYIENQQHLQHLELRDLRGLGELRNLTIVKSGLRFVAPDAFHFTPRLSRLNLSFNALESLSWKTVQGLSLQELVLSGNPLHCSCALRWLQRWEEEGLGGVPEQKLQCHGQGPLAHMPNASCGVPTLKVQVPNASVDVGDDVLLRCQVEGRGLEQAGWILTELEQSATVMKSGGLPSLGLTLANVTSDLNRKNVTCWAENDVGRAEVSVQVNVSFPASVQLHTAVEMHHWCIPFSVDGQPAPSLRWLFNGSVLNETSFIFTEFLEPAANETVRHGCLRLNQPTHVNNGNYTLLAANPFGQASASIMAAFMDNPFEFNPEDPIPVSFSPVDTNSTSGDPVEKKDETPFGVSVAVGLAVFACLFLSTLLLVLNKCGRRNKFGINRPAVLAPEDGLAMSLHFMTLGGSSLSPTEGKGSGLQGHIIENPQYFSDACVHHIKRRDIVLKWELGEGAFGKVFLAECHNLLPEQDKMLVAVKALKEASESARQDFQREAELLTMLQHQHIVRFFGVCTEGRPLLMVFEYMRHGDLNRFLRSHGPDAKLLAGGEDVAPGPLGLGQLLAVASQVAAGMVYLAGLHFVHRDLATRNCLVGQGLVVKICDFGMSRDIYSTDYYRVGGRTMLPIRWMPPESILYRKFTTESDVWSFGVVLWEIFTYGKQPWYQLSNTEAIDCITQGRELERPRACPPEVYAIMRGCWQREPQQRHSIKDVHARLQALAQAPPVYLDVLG
Method: (§6) Biological Test Example 2 In Vitro Activity Test on Mutant TRKA (G595R), TRKA (G667C) and TRKC (G623R)
(§7) The recombinant human TRKA (G595R), TRKA (G667C) and TRKC (G623R) proteins were purchased from SignalChem. HTRF kinEASE TK kit was purchased from CisbioBioassays. Synergy Neo 2 of Biotek was used to read the plate.
(§8) The tested compound was subjected to 4-fold serial dilution to reach a final concentration of 1 μM to 0.004 nM (10 concentrates), duplicates for each concentration; and 1% DMSO was present in the detection reaction.
0.026 ng/μL TRKA (G667C) kinase, 1 μM TK Substrate-biotin polypeptide substrate, 5.5 μm ATP, 1× enzymatic buffer, 5 mM MgCl2, and 1 mM DTT. The detection plate was White Proxiplate 384-Plus plate (PerkinElmer), and incubated at room temperature for 30 min, the assay volume was 10 μL.
as §4
(§9) The value of 665/620 Ratio minus the value of negative control wells without enzyme, then the obtained value was converted according to the following formula into inhibition rate (%)=(1−Ratiotest/Ratiomax)×100%. Ratiomax was a positive control without tested compound, and Ratiotest was the value of each concentration of different compounds. IC50 (nM) data was obtained by 4 parameter curve fitting (see Table 1).

Recombinant human TRKB = target: T4, Recombinant human TRKB (Homo sapiens, UniProt Q16620); assay: In vitro activity test on TRKB kinase (HTRF KinEASE TK); conditions: 4.77 μM ATP, 50 min
T4 construct: purchased Carna Biosciences
T4 sequence (Q16620 32-822): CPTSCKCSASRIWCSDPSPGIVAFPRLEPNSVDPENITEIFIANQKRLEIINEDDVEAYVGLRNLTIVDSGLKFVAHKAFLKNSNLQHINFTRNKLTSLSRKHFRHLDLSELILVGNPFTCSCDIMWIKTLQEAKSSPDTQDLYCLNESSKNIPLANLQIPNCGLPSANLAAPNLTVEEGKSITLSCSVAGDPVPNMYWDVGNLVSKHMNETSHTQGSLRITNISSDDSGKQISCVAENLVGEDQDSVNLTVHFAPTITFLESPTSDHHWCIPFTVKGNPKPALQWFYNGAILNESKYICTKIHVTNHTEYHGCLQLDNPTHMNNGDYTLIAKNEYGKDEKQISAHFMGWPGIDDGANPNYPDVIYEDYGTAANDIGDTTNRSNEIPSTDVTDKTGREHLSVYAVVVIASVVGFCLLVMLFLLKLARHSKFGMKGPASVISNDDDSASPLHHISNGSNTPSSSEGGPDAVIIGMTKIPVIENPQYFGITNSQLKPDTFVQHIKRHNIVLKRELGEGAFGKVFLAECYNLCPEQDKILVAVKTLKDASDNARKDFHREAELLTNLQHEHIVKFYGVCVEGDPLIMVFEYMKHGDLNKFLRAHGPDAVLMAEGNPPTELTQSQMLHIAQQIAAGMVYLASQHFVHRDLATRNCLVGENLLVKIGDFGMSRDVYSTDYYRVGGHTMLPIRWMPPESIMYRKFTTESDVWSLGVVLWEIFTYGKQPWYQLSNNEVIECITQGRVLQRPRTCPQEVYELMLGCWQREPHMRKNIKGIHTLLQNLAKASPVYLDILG
Method: as §1, §2, §3
0.037 ng/μL TRKB protein kinase, 1 μM TK Substrate-biotin polypeptide substrate, 4.77 μM ATP, 1× enzymatic buffer, 5 mM MgCl2, and 1 mM DTT. The detection plate was White Proxiplate 384-Plus plate (PerkinElmer), and incubated at room temperature for 50 min, and the assay volume was 10 μL.
as §4, §5

[2] = target: T5, recombinant human TRKA (G595R) (Homo sapiens, UniProt P04629, G595R); assay: In vitro activity test on mutant TRKA (G595R) (HTRF KinEASE TK); conditions: 4.5 μM ATP, 30 min
T5 construct: purchased SignalChem
T5 sequence (P04629 33-796 G595R): as the sequence (P04629 33-796 G667C) above, with G563R, C635G counted along it
Method: as §6, §7, §8
0.12 ng/μL TRKA (G595R) kinase, 1 μM TK Substrate-biotin polypeptide substrate, 4.5 μM ATP, 1× enzymatic buffer, 5 mM MgCl2, and 1 mm DTT. The detection plate was White Proxiplate384-Plus plate (PerkinElmer), and incubated at room temperature for 30 min, and the assay volume was 10 μL.
as §4, §9

T1 sequence (P04629 33-796): as the sequence (P04629 33-796 G667C) above, with C635G counted along it

Row | SMILES | IC50 (Recombinant human TRKA) [nM] | IC50 (Recombinant human TRKC) [nM] | IC50 [1] [nM] | IC50 (Recombinant human TRKB) [nM] | IC50 [2] [nM]
1 | CS(=O)(=O)n1cc(-c2c(Cl)cnc3ccc(N4C[C@@H](F)C[C@@H]4c4cc(F)ccc4F)nc23)cn1 [Example 25, 7-chloro-2-((2R,4S)-2-(2,5-difluorophenyl)-4-fluoropyrrolidin-1-yl)-8-(1-(methylsulfonyl)-1H-pyrazol-4-yl)-1,5-naphthyridine] | < 10 | < 1 | < 10 | < 1 | < 1
2 | Fc1ccc(F)c([C@H]2CCCN2c2ccc3ncc(F)c(-c4cnn(C5CNC5)c4)c3n2)c1 [Example 28, (R)-8-(1-(azetidin-3-yl)-1H-pyrazol-4-yl)-2-(2-(2,5-difluorophenyl)pyrrolidin-1-yl)-7-fluoro-1,5-naphthyridine] | < 10 | < 10 | < 10 | < 10 | < 10
3 | CN(C)S(=O)(=O)n1cc(-c2c(Cl)cnc3ccc(N4C[C@@H](F)C[C@@H]4c4cc(F)ccc4F)nc23)cn1 [Example 31] | < 1 | < 10 | < 100 | < 10 | < 10
4 | OCCN1CCC(n2cc(-c3c(Cl)cnc4ccc(N5C[C@@H](F)C[C@@H]5c5cc(F)ccc5F)nc34)cn2)CC1 [Example 32, 2-(4-(4-(3-chloro-6-((2R,4S)-2-(2,5-difluorophenyl)-4-fluoropyrrolidin-1-yl)-1,5-naphthyridin-4-yl)-1H-pyrazol-1-yl)piperidin-1-yl)ethan-1-ol] | < 1 | < 1 | < 1 | < 1 | < 1
5 | COc1ccc(F)cc1[C@H]1CCCN1c1ccc2ncc(Cl)c(-c3cnn(C4CCNCC4)c3)c2n1 [Example 33, (R)-7-chloro-2-(2-(5-fluoro-2-methoxyphenyl)pyrrolidin-1-yl)-8-(1-(piperidin-4-yl)-1H-pyrazol-4-yl)-1,5-naphthyridine] | < 1 | < 50 | < 10 | < 10 | < 10
6 | CC(C)(O)Cn1cc(-c2c(Cl)cnc3ccc(N4C[C@@H](F)C[C@@H]4c4cc(F)ccc4F)nc23)cn1 [Example 35, 1-(4-(3-chloro-6-((2R,4S)-2-(2,5-difluorophenyl)-4-fluoropyrrolidin-1-yl)-1,5-naphthyridin-4-yl)-1H-pyrazol-1-yl)-2-methylpropan-2-ol] | < 1 | < 1 | < 10 | < 1 | < 10
7 | N#Cc1cnc2ccc(N3C[C@@H](F)C[C@@H]3c3cc(F)ccc3F)nc2c1-c1cnn(C2CCNCC2)c1 [Example 36, 6-((2R,4S)-2-(2,5-difluorophenyl)-4-fluoropyrrolidin-1-yl)-4-(1-(piperidin-4-yl)-1H-pyrazol-4-yl)-1,5-naphthyridin-3-carbonitrile] | < 1 | < 1 | < 10 | < 1 | < 10
8 | NC(=O)c1cnc2ccc(N3C[C@@H](F)C[C@@H]3c3cc(F)ccc3F)nc2c1-c1cnn(C2CCNCC2)c1 [Example 37, 6-((2R,4S)-2-(2,5-difluorophenyl)-4-fluoropyrrolidin-1-yl)-4-(1-(piperidin-4-yl)-1H-pyrazol-4-yl)-1,5-naphthyridin-3-carboxamide] | < 1 | < 10 | < 50 | < 10 | < 10
9 | COC1(C)CC(n2cc(-c3c(Cl)cnc4ccc(N5C[C@@H](F)C[C@@H]5c5cc(F)ccc5F)nc34)cn2)C1 (stereo partly drawn) [Example 38, 7-chloro-2-((2R,4S)-2-(2,5-difluorophenyl)-4-fluoropyrrolidin-1-yl)-8-(1-(3-methoxy-3-methylcyclobutyl)-1H-pyrazol-4-yl)-1,5-naphthyridine] | < 1 | < 10 | < 50 | < 10 | < 50
10 | CC1(O)CC(n2cc(-c3c(Cl)cnc4ccc(N5C[C@@H](F)C[C@@H]5c5cc(F)ccc5F)nc34)cn2)C1 (stereo partly drawn) [Example 39, 3-(4-(3-chloro-6-((2R,4S)-2-(2,5-difluorophenyl)-4-fluoropyrrolidin-1-yl)-1,5-naphthyridin-4-yl)-1H-pyrazol-1-yl)-1-methylcyclobutan-1-ol] | < 1 | < 1 | < 10 | < 1 | < 10

Other lines, results leading:

Row | IC50 (Recombinant human TRKA) [nM] | IC50 (Recombinant human TRKC) [nM] | IC50 [1] [nM] | IC50 (Recombinant human TRKB) [nM] | IC50 [2] [nM] | SMILES
11 | < 1 | < 1 | < 1 | < 1 | < 1 | Fc1ccc(F)c([C@H]2C[C@H](F)CN2c2ccc3ncc(Cl)c(-c4cnn(C5CNC5)c4)c3n2)c1 [Example 22, 8-(1-(azetidine-3-yl)-1H-pyrazol-4-yl)-7-chloro-2-((2R,4S)-2-(2,5-difluorophenyl)-4-fluoropyrrolidin-1-yl)-1,5-naphthyridine]
12 | < 1 | < 10 | < 1 | < 1 | < 1 | CN1CC(n2cc(-c3c(Cl)cnc4ccc(N5C[C@@H](F)C[C@@H]5c5cc(F)ccc5F)nc34)cn2)C1 [Example 23]
13 | < 1 | < 10 | < 10 | < 1 | < 1 | Fc1ccc(F)c([C@H]2CCCN2c2ccc3ncc(Cl)c(-c4cnn(C5CCNCC5)c4)c3n2)c1 [Example 24, (R)-7-chloro-2-(2-(2,5-difluorophenyl)pyrrolidin-1-yl)-8-(1-(piperidin-4-yl)-1H-pyrazol-4-yl)-1,5-naphthyridine]
14 | < 1 | < 1 | < 1 | < 1 | < 1 | O=C(Nc1ccnc2ccc(N3C[C@@H](F)C[C@@H]3c3cc(F)ccc3F)nc12)N1CC[C@H](O)C1 [Example 26, (S)—N-(6-((2R,4S)-2-(2,5-difluorophenyl)-4-fluoropyrrolidin-1-yl)-1,5-naphthyridin-4-yl)-3-hydroxypyrrolidin-1-carboxamide]
15 | < 1 | < 1 | < 50 | < 1 | < 1 | O=C(Nc1ccnc2ccc(N3CCC[C@@H]3c3cc(F)ccc3F)nc12)N1CC[C@H](O)C1 [Example 27, (S)—N-(6-((R)-2-(2,5-difluorophenyl)pyrrolidin-1-yl)-1,5-naphthyridin-4-yl)-3-hydroxypyrrolidin-1-carboxamide]
16 | < 1 | < 1 | < 1 | < 1 | < 1 | Fc1ccc(F)c([C@H]2C[C@H](F)CN2c2ccc3ncc(F)c(-c4cnn(C5CNC5)c4)c3n2)c1 [Example 29, 8-(1-(azetidin-3-yl)-1H-pyrazol-4-yl)-2-((2R,4S)-2-(2,5-difluorophenyl)-4-fluoropyrrolidin-1-yl)-7-fluoro-1,5-naphthyridine]
17 | < 1 | < 10 | < 10 | < 10 | < 1 | COc1ncc(F)cc1[C@H]1CCCN1c1ccc2ncc(Cl)c(-c3cnn(C4CCNCC4)c3)c2n1 [Example 30, (R)-7-chloro-2-(2-(5-fluoro-2-methoxypyridin-3-yl)pyrrolidin-1-yl)-8-(1-(piperidin-4-yl)-1H-pyrazol-4-yl)-1,5-naphthyridine]
